Experimental data as given in patent US11980658B2, “Immunotherapeutic molecules and uses thereof” (priority 2012, dated 2024).
Entries after “also recorded” stand apart in the source; their conditions may differ. Where no end group is shown, it is not given here.

Experiments:
Type in all cases: cell-based, human
[1] = tested on: Ara h 1-specific CD4+ T-cell lines (TCL); test: Antigen-induced TCL proliferation, 3H-thymidine uptake assay; settings: for Donor responder frequency for TCL recognition of Ara h 1 20-mer peptides: n=18 peanut-allergic subjects, SI≥2.5
Source text: Ara h 1-specific oligoclonal TCL were generated from peripheral blood mononuclear cells (PBMC) of peanut-allergic subjects using 5,6-carboxyfluorescein diacetate succinimidylester (CFSE)-based methodology (Mannering et al. J Immunol Methods. 2005; 298(1-2):83-92) as described (Prickett et al. 2011 supra), with CPE ([…]), Ara h 1 (10 gg/mL) or 20-mer peptides spanning the Ara h 1 sequence (11 amino acid (aa) overlap (17 aa overlap for the last peptide); Table 5; 10 pg/mL/peptide) as the driving antigens. All TCL were tested for specificity (proliferation) to individual Ara h 1 20-mers (10 pg/mL) as well as CPE ([…]) and/or Ara h 1 (10 pg/mL) Core epitope sequences were mapped within selected 20-mers using peptide sets truncated from the N- or C-terminus of the 20-mer as described (Prickett et al. 2011 supra).
(§1) All culturing was performed in RPMI-1640 containing 2 mM L-glutamine, 100 IU/mL penicillin-streptomycin and 5% heat-inactivated human AB serum (Sigma-Aldrich, St Louis, USA) (cRPMI). Antigen-induced TCL proliferation was assessed by ^3H-thymidine (3H-TdR) uptake assays as described (Prickett et al. 2011 supra). A stimulation index (SI; cpm antigen-stimulated T cells/cpm unstimulated T cells) >2.5 was considered positive and all positive responses confirmed in >2 assays. HLA-restriction of epitope recognition by TCL was assessed using monoclonal antibodies (mAb) against HLA-DR (L243), HLA-DQ (SVP-L3) or HLA-DP (B7/21) to block epitope presentation as described (Prickett et al. 2011 supra). To allow detection of peptide-induced CD4+ T-cell proliferation within whole PBMC, 7-day cultures of CFSE-labelled PBMC were set up as described for TCL generation (Prickett et al. 2011 supra). At least 10,000 CD4^+ T cells were analyzed per sample and SI calculated as percentage of CD4^+CFSE^lo (proliferated) cells with antigen/percentage of CD4^+CFSE^lo cells without antigen (background). The detection threshold for a specific response in this assay was assessed by expanding peptide-specific TCL from proliferated CD4^+ cells over a range of SI values for three subjects. Specific TCL could be generated from divided T cells with SI as low as 1.1 in all three subjects (data not shown) allowing designation of an SI>1.1 as positive.

HLA-DR, HLA-DQ, HLA-DP = test: HLA class II restriction of epitope recognition by TCL (blocking mAbs); settings: anti-HLA-DR, -DP or -DQ mAbs
Experimental: as §1
There is no identified HLA-II association with peanut allergy (Shreffler et al. Ann Allergy Asthma Immunol 2006; 96(6):865-9), therefore peptides selected for therapy must bind diverse HLA-II molecules for wide applicability. To determine the HLA-II type presenting each epitope, anti-HLA-DR, -DP or -DQ mAbs were used to block individual epitope presentation to T cells. […] At least two subjects and/or TCL were tested per epitope (FIG. 8).

basophils = test: Basophil activation test (CD63 upregulation by flow cytometry)
Experimental: Basophil activation was assessed by CD63 upregulation detected by flow cytometry as described (Drew et al. J Immunol. 2004; 173(9):5872-9). Positive controls were rabbit anti-human IgE antibody (7.5 ug/mL; DAKO Corporation, CA, USA), N-formyl-methionine-leucine-phenylalanine (fMLP) (0.4 ug/mL; Sigma) and CPE. CPE, Ara h 1 and peptides were tested over a 3-log concentration range (5, 0.5 and 0.05 ug/mL)

## ALMLPHFNSKAMVIVVVNKG [compound 50]
[1]
  Donor responder frequency for TCL recognition of Ara h 1 20-mer peptides: 33%

## WSTRSSENNEGVIVKVSKE [(353-371)]
HLA-DR, HLA-DQ, HLA-DP
  HLA class II restriction (mAb that blocked epitope recognition): blocked by anti-HLA-DQ in both subjects tested

## GDVFIMPAAHPVAINASS (Chemcially synthezised) [(507-524)]
HLA-DR, HLA-DQ, HLA-DP
  HLA class II restriction (mAb that blocked epitope recognition): blocked by anti-HLA-DR for some TCL but by anti-HLA-DQ for others; also recorded: HLA-DQ restricted

## NNFGKLFEVKPDKKNPQLQ [(409-427), NNFGKLFEVKPDKKNPQLQ]
basophils
  Basophil activation (percentage of activated CD63hi basophils): 8%

## VEIKEGALMLPHFNSKA (Chemcially synthezised) [(436-452)]
HLA-DR, HLA-DQ, HLA-DP
  HLA class II restriction (mAb that blocked epitope recognition): blocked by anti-HLA-DR for some TCL but by anti-HLA-DQ for others

## FQNLQNHRIVQIEAKPNTLV [(206-225)]
[1]
  TCL stimulation / recognition (in words): efficiently stimulated TCL specific for either epitope

## KAMVIVVVNKGTGNLELVAV (Chemcially Synthezised) [compound 51]
[1]
  TCL stimulation / recognition (in words): efficiently stimulated TCL specific for either epitope
  Donor responder frequency for TCL recognition of Ara h 1 20-mer peptides: 33%

## ALMLPHFNSKAMVIVVV (Chemcially synthezised) [(442-458)]
HLA-DR, HLA-DQ, HLA-DP
  HLA class II restriction (mAb that blocked epitope recognition): HLA-DR-restricted

B1: Ara h 1: major peanut allergen, 7S seed storage glycoprotein or vicilin, enriched from CPE by liquid chromatography (protein, listed as Homo sapiens)
chain: MRGRVSPLMLLLGILVLASVSATHAKSSPYQKKTENPCAQRCLQSCQQEPDDLKQKACESRCTKLEYDPRCVYDPRGHTGTTNQRSPPGERTRGRQPGDYDDDRRQPRREEGGRWGPAGPREREREEDWRQPREDWRRPSHQQPRKIRPEGREGEQEWGTPGSHVREETSRNNPFYFPSRRFSTRYGNQNGRIRVLQRFDQRSRQFQNLQNHRIVQIEAKPNTLVLPKHADADNILVIQQGQATVTVANGNNRKSFNLDEGHALRIPSGFISYILNRHDNQNLRVAKISMPVNTPGQFEDFFPASSRDQSSYLQGFSRNTLEAAFNAEFNEIRRVLLEENAGGEQEERGQRRWSTRSSENNEGVIVKVSKEHVEELTKHAKSVSKKGSEEEGDITNPINLREGEPDLSNNFGKLFEVKPDKKNPQLQDLDMMLTCVEIKEGALMLPHFNSKAMVIVVVNKGTGNLELVAVRKEQQQRGRREEEEDEDEEEEGSNREVRRYTARLKEGDVFIMPAAHPVAINASSELHLLGFGINAENNHRIFLAGDKDNVIDQIEKQAKDLAFPGSGEQVEKLIKNQKESHFVSARPQSQSQSPSSPEKESPEKEDQEEENQGGKGPLLSILKAFN
basophils
  Basophil activation (percentage of activated CD63hi basophils): 80-90%
